# Data published in patent publication US12220440B2, “Drug composition, method for treating infection, disinfecting composition, and drug adjuvant” (priority 2022, dated 2025).
# Where two headings read alike, the source gives them in different places. Peptide text beside a SMILES is read from it.
# Columns and labels:
# Assay type in all cases: cell-based
# [1] = test system: E. coli (colistin-resistant); assay: MIC, colistin-resistant E. coli clinical isolates, with and without otilonium bromide; conditions: Escherichia coli
# [2] = test system: A. baumannii (colistin-resistant); assay: MIC, colistin-resistant A. baumannii isolates, with and without otilonium bromide; conditions: for MIC: Acinetobacter baumannii
# [3] = test system: E. coli Bw25113; assay: MIC, colistin-susceptible E. coli, with and without otilonium bromide; conditions: Escherichia coli
# [4] = test system: mcr-1-bearing E. coli J53; assay: microbe, parasite or virus in culture; conditions: 20 μg/ml of otilonium bromide
# Source text: E. coli J53 strain carrying a natural mcr-1-bearing IncI2 plasmid (33 kb, KX711706.1) is used to screen and identify colistin adjuvants which could enhance the antibacterial activity of colistin.
# [5] = test system: E. coli J53; assay: MIC checkerboard dilution assay, otilonium bromide vs. colistin; conditions: Escherichia coli
# [6] = test system: colistin-resistant E. coli; assay: Time-kill curves
# Procedure: (§1) However, the effective bactericidal concentration of colistin could be reduced to 8 μg/ml in the presence of 20 μg/ml of otilonium bromide. For colistin-susceptible E. coli, 8 μg/ml of colistin is required to eradicate the strains. However, in the presence of 20 μg/ml of otilonium bromide 1 μg/ml colistin is sufficient to achieve complete eradication of the organism. […] Thus, without intending to be limited by theory, it is believed that this synergistic mechanism is not limited to the inhibition of the colistin resistance mechanism.
# [7] = test system: colistin-susceptible E. coli; assay: Time-kill curves
# Procedure: as §1
# [8] = test system: mcr-1-bearing E. coli; assay: LIVE/DEAD cell viability assay, fluorescence microscopy; conditions: 8 μg/ml of colistin alone
# Procedure: Fluorescence microscopy quantifies the number of live and dead cells and determines the degree of reduction in colistin concentration in the drug combination required for effective eradication of the test organism. […] However, in the presence of 20 μg/ml of otilonium bromide, 4 μg/ml of colistin eradicates >97% of the bacteria.
# [9] = test system: mcr-1-bearing E. coli; conditions: colistin 32 μg/ml for 24 hours; initial ~10^8 CFU/mL in saline
# Procedure: (§2) Starvation-induced bacterial sub-population tolerant cells of colistin-resistant and colistin-susceptible E. coli and A. baumannii strains are tested against the bactericidal effect of the combination of otilonium bromide and colistin. […] The incubation temperature is 37° C. Ob and colistin are added at the same time.
# [10] = test system: A. baumannii 17978; assay: Killing of starvation-induced tolerant cells; conditions: with otilonium bromide, 24-hour treatment
# Procedure: as §2
# [11] = test system: colistin-susceptible E. coli J53; assay: Killing of starvation-induced tolerant cells; conditions: with otilonium bromide, 24-hour treatment
# Procedure: as §2
# [12] = test system: mcr-1-bearing E. coli J53; assay: SYTOX Green membrane permeability staining; conditions: each drug individually
# Source text: SYTOX™ Green (available from ThermoFisher Scientific) staining analysis assesses the membrane permeability of colistin-resistant E. coli before and after treatment with the colistin and otilonium bromide combination. SYTOX Green is a green-fluorescent nucleotide dye used to test membrane permeability and membrane integrity. Green fluorescence is detected by fluorescence spectrometer when bacterial cell integrity is destroyed and membrane permeability increases.
# [13] = test system: mcr-1-bearing E. coli J53; assay: Ca2+ / Mg2+ MIC-dependency in cation-supplemented MHB; conditions: 37° C., 16 hours
# Procedure: Accordingly, the effect of divalent ions on the antibacterial activity of otilonium bromide and colistin is investigated. […] For FIGS. 5a-5b, E. coli J53 expressing MCR-1 is treated with colistin and colistin+Ob as indicated in Mueller Hinton II Broth (MHB) that is cation-adjusted; i.e., supplemented with different concentrations of Mg^2+ and Ca^2+ ions). The incubation is conducted at 37° C. for 16 hours.
# [14] = in the presence of 20 μg/ml of otilonium bromide
smiles,measurement,setting,value
"CCC(C)CCCC(=O)N[C@@H](CCN)C(=O)N[C@H](C(=O)N[C@@H](CCN)C(=O)N[C@H]1CCNC(=O)[C@H]([C@@H](C)O)NC(=O)[C@H](CCN)NC(=O)[C@H](CCN)NC(=O)[C@H](CC(C)C)NC(=O)[C@@H](CC(C)C)NC(=O)[C@H](CCN)NC1=O)[C@@H](C)O (stereo partly drawn) [Colistin] (HELM PEPTIDE1{[CCC(C)CCCC(=O)[*:2]].[Dab].T.[Dab].[Dab].[Dab].[dL].L.[Dab].[Dab].T}$PEPTIDE1,PEPTIDE1,5:R3-11:R2$$$V2.0)",MIC,"[1]; E. coli WZ3906, colistin-resistant, in the presence of 10 ug/ml Ob, read-out: Colistin MIC, Colistin + 10 ug/ml Ob",4 µg/mL
same,MIC,"[1]; E. coli WZ3906, colistin-resistant, in the presence of 20 ug/ml Ob, read-out: Colistin MIC, Colistin + 20 ug/ml Ob",1 µg/mL
same,MIC,"[1]; E. coli WZ3920, colistin-resistant, colistin alone, read-out: Colistin MIC, Colistin",4 µg/mL
same,MIC,"[1]; E. coli WZ3920, colistin-resistant, in the presence of 10 ug/ml Ob, read-out: Colistin MIC, Colistin + 10 ug/ml Ob",2 µg/mL
same,MIC,"[1]; E. coli WZ3920, colistin-resistant, in the presence of 20 ug/ml Ob, read-out: Colistin MIC, Colistin + 20 ug/ml Ob",≤ 0.25 µg/mL
same,MIC,"[1]; E. coli WZ3951, colistin-resistant, colistin alone, read-out: Colistin MIC, Colistin",16 µg/mL
same,MIC,"[1]; E. coli WZ3951, colistin-resistant, in the presence of 10 ug/ml Ob, read-out: Colistin MIC, Colistin + 10 ug/ml Ob",8 µg/mL
same,MIC,"[1]; E. coli WZ3951, colistin-resistant, in the presence of 20 ug/ml Ob, read-out: Colistin MIC, Colistin + 20 ug/ml Ob",2 µg/mL
same,MIC,"[1]; E. coli WZ3955, colistin-resistant, colistin alone, read-out: Colistin MIC, Colistin",8 µg/mL
same,MIC,"[1]; E. coli WZ3955, colistin-resistant, in the presence of 10 ug/ml Ob, read-out: Colistin MIC, Colistin + 10 ug/ml Ob",4 µg/mL
same,MIC,"[1]; E. coli WZ3955, colistin-resistant, in the presence of 20 ug/ml Ob, read-out: Colistin MIC, Colistin + 20 ug/ml Ob",1 µg/mL
same,MIC,"[1]; E. coli X2169, colistin-resistant, colistin alone, read-out: Colistin MIC, Colistin",16 µg/mL
same,MIC,"[1]; E. coli X2169, colistin-resistant, in the presence of 10 ug/ml Ob, read-out: Colistin MIC, Colistin + 10 ug/ml Ob",4 µg/mL
same,MIC,"[1]; E. coli X2169, colistin-resistant, in the presence of 20 ug/ml Ob, read-out: Colistin MIC, Colistin + 20 ug/ml Ob",2 µg/mL
same,"Colistin MIC, Colistin","[2]; A. baumannii ABJZ-46, colistin-resistant, colistin alone",4 µg/mL
same,"Colistin MIC, Colistin","[2]; A. baumannii ABJZ-50, colistin-resistant, colistin alone",4 µg/mL
same,"Colistin MIC, Colistin","[2]; A. baumannii ABJZ-72, colistin-resistant, colistin alone",4 µg/mL
same,MIC,"[2]; ATCC17978, read-out: Colistin MIC, Colistin + 10 ug/ml Ob, A. baumannii ATCC17978, colistin-resistant, in the presence of 10 ug/ml Ob",0.125 µg/mL
same,MIC,"[2]; read-out: Colistin MIC, Colistin + 10 ug/ml Ob, A. baumannii ABJZ-45, colistin-resistant, in the presence of 10 ug/ml Ob",0.0625 µg/mL
same,MIC,"[2]; read-out: Colistin MIC, Colistin + 10 ug/ml Ob, A. baumannii ABJZ-46, colistin-resistant, in the presence of 10 ug/ml Ob",0.5 µg/mL
same,MIC,"[2]; read-out: Colistin MIC, Colistin + 10 ug/ml Ob, A. baumannii ABJZ-50, colistin-resistant, in the presence of 10 ug/ml Ob",0.25 µg/mL
same,MIC,"[2]; read-out: Colistin MIC, Colistin + 10 ug/ml Ob, A. baumannii ABJZ-72, colistin-resistant, in the presence of 10 ug/ml Ob",0.125 µg/mL
same,MIC,"[2]; A. baumannii ABJZ-45, colistin-resistant, colistin alone, read-out: Colistin MIC, Colistin",4 µg/mL
same,MIC,"[2]; A. baumannii ATCC17978, colistin-resistant, colistin alone, read-out: Colistin MIC, Colistin",4 µg/mL
same,MIC,"[3]; colistin alone, read-out: Colistin MIC, Colistin",2 µg/mL
same,MIC,"[3]; in the presence of 10 ug/ml Ob, read-out: Colistin MIC, Colistin + 10 ug/ml Ob",0.03 µg/mL
same,MIC,"[3]; in the presence of 20 ug/ml Ob, read-out: Colistin MIC, Colistin + 20 ug/ml Ob",≤ 0.015 µg/mL
same,MIC,"[4]; Escherichia coli, read-out: colistin MIC (minimum inhibitory concentration), mcr-1-bearing E. coli J53",0.28 µg/mL
same,reduction in colistin MIC,[4]; mcr-1-bearing E. coli J53,32 fold
same,MIC,[5]; 10 μg/ml of otilonium bromide,≤ 0.016 µg/mL
same,MIC,[5]; colistin alone,1 µg/mL
same,colistin concentration inhibiting growth (time-kill),[6]; colistin alone,≥ 32 µg/mL
same,effective bactericidal concentration of colistin (time-kill),[6]; [14],8 µg/mL
same,colistin required to eradicate the strains (time-kill),[7]; colistin alone,8 µg/mL
same,colistin sufficient for complete eradication (time-kill),[7]; [14],1 µg/mL
same,live/dead state of cells,[8],most or all mcr-1-bearing E. coli strains were alive
same,size of the viable tolerant population,[9],5*10^5 CFU/ml
same,concentration of colistin required to completely eradicate tolerant sub-population,[10],1 µg/mL
same,concentration of colistin required to completely eradicate tolerant sub-population,[11],1 µg/mL
same,SYTOX Green fluorescence (membrane permeability),[12],significant increase in fluorescence
same,effect of supplemented Ca2+ and Mg2+ on MIC,[13],increase the MIC
